Laboratory results reported in US20110166196A1, “TREATMENT AND PROPHYLAXIS OF EPILEPSY AND FEBRILE SEIZURES” (priority 2008, published 2011).

Tested on: excitatory synapses on interneurons
Test: Drug-induced depression of EPSC amplitudes in slices from TRPV1-/- and C57BL/6 wild-type mice
Assay type: cell-based, mouse
Settings: capsaicin 1 μM
Source text: The basic methods have been detailed previously (McMahon and Kauer, 1997). Sprague-Dawley rats (15-22 days old) were used in the majority of experiments. In addition, we used TRPV1^−/− mice (Caterina et al., 2000) and wild-type C57BL/6 mice aged between 15 and 21 days (Jackson Laboratory). The TRPV1^−/− mice we used have been backcrossed at least 10 times onto a C57BL/6 background and were obtained from homozygous breeding pairs. Control mice were therefore not littermates but were age-matched, wild-type C57BL/6 animals received from the same supplier in the same shipment. All animal protocols were approved by the Brown University Institutional Animal Care and Use Committee. For mouse experiments, only one brain slice per mouse was used for each experiment, so that reported ‘n’ numbers represent the number of animals. Animals were anaesthetized using halothane or isoflurane and quickly decapitated. […]
Slices were continuously perfused with ACSF warmed to 28-32° C. at a flow rate of 1-2 ml/min. […] EPSCs were stimulated at 0.1 Hz (100 μsec) using a bipolar stainless steel stimulating electrode placed in stratum radiatum at least 200 μm from the recorded cell. […] In early experiments, we measured rectification ratios of EPSCs evoked at +40 mV/−60 mV in the presence of 50 μM D-AP5, measured at the time of peak inward synaptic current seen at −70 mV (Lei and McBain, 2004).
The maximal initial slope of fEPSPs was calculated using a LabVIEW-based program (National Instruments). The peak amplitude of each EPSC was measured by comparing a 10 msec time period immediately prior to the stimulus with the peak of the EPSC using this program as well. Occasionally polysynaptic responses were evoked, and in these cases, only the initial monosynaptic event was measured. To positively identify LTD, EPSCs measured every 10 seconds were averaged in 1 minute intervals. […]

## COc1cc(CNC(=O)CCCCC=CC(C)C)ccc1O [capsaicin, 8-methyl-N-vanillyl-6-nonenamide]
C57BL/6 wild-type mice, n=6
  EPSC amplitudes after 10-15 minutes in capsaicin in C57BL/6 wild-type mice: 50.5±12.1 % of pre-drug control values
TRPV1−/− mice, n=8
  EPSC amplitudes after 10-15 minutes in capsaicin in TRPV1−/− mice: 100.7±6.6 % of pre-drug control values
